{"source": "patent US20120130104A1", "about": "“CYCLOPROPENES-[…] TO CONTROL RIPENING PROCESSES OF AGRICULTURAL PRODUCTS” (priority 2005, published 2012)", "tested_on": "tomatoes", "test": "Inhibitory effects of cyclopropene compounds on tomato ripening", "assay_type": "in vivo", "conditions": "for Degree of ripening 0, number of tomatoes, Treated / Degree of ripening 1, number of tomatoes, Treated / Degree of ripening 2, number of tomatoes, Treated / Degree of ripening 3, number of tomatoes, Treated / Degree of ripening 4, number of tomatoes, Treated / Degree of ripening 5, number of tomatoes, Treated: scale 0 = no red color, 5 = completely ripened to dark red", "procedure": "A cube (60×60×60 cm) was fabricated using a transparent acrylic plastic plate. The upper surface of the cube was equipped with two valves for air-injection and exhaust. Immediately prior to beginning of the red ripening stages, 20 blue tomatoes were harvested and divided into a treatment group and a control group which were then placed in acrylic plastic vessels, respectively. Among two plastic vessels, the treatment group was treated with 1-methylcyclopropene generated by injection of 3 mL diglyme solution containing 0.2 g of 1-methyl-1-(methanesulfonyloxy)-2-(trimethylsilyl)cyclopropane {synthesized in Section (2) of Example 5} into a column packed with 5 g of 15% Bu4NF coated Silica gel {prepared in Section (2) of Example 4} while maintaining the air flow at a flow rate of 2 L/min using a small compressor (see FIG. 3).\nTomatoes of the treatment group were treated for 1 hour according to the above-mentioned method and were then left for 12 hours while closing the valve. And then, tomatoes of the treatment group and tomatoes of the control group were observed on a progress of turning into red color. Based on the observation results, the ripening progress of tomatoes was evaluated.\nHerein, the degree of ripening of tomatoes was classified on a scale of 0 to 5:\n0: No red color similar to when completely green tomatoes were harvested 5: Completely ripened to dark red 1 to 4: Red color between the scale of 0 and 5\nTherefore, the higher value represents the redder tomato color."}
{"smiles": "CC1=CC1", "note": "[1-methylcyclopropene]", "values": [{"measurement": "inhibitory effects on the ripening process of tomatoes", "setting": "1-methylcyclopropene generated by the device", "value": "significant inhibitory effects"}, {"measurement": "Degree of ripening 0, number of tomatoes, Treated", "setting": "Day 0", "value": 10}, {"measurement": "Degree of ripening 1, number of tomatoes, Treated", "setting": "Day 0", "value": 0}, {"measurement": "Degree of ripening 2, number of tomatoes, Treated", "setting": "Day 0", "value": 0}, {"measurement": "Degree of ripening 3, number of tomatoes, Treated", "setting": "Day 0", "value": 0}, {"measurement": "Degree of ripening 4, number of tomatoes, Treated", "setting": "Day 0", "value": 0}, {"measurement": "Degree of ripening 5, number of tomatoes, Treated", "setting": "Day 0", "value": 0}, {"measurement": "Degree of ripening 0, number of tomatoes, Treated", "setting": "Day 1", "value": 10}, {"measurement": "Degree of ripening 1, number of tomatoes, Treated", "setting": "Day 1", "value": 0}, {"measurement": "Degree of ripening 2, number of tomatoes, Treated", "setting": "Day 1", "value": 0}, {"measurement": "Degree of ripening 3, number of tomatoes, Treated", "setting": "Day 1", "value": 0}, {"measurement": "Degree of ripening 4, number of tomatoes, Treated", "setting": "Day 1", "value": 0}, {"measurement": "Degree of ripening 5, number of tomatoes, Treated", "setting": "Day 1", "value": 0}, {"measurement": "Degree of ripening 0, number of tomatoes, Treated", "setting": "Day 2", "value": 10}, {"measurement": "Degree of ripening 1, number of tomatoes, Treated", "setting": "Day 2", "value": 0}, {"measurement": "Degree of ripening 2, number of tomatoes, Treated", "setting": "Day 2", "value": 0}, {"measurement": "Degree of ripening 3, number of tomatoes, Treated", "setting": "Day 2", "value": 0}, {"measurement": "Degree of ripening 4, number of tomatoes, Treated", "setting": "Day 2", "value": 0}, {"measurement": "Degree of ripening 5, number of tomatoes, Treated", "setting": "Day 2", "value": 0}, {"measurement": "Degree of ripening 0, number of tomatoes, Treated", "setting": "Day 3", "value": 9}, {"measurement": "Degree of ripening 1, number of tomatoes, Treated", "setting": "Day 3", "value": 1}, {"measurement": "Degree of ripening 2, number of tomatoes, Treated", "setting": "Day 3", "value": 0}, {"measurement": "Degree of ripening 3, number of tomatoes, Treated", "setting": "Day 3", "value": 0}, {"measurement": "Degree of ripening 4, number of tomatoes, Treated", "setting": "Day 3", "value": 0}, {"measurement": "Degree of ripening 5, number of tomatoes, Treated", "setting": "Day 3", "value": 0}, {"measurement": "Degree of ripening 0, number of tomatoes, Treated", "setting": "Day 4", "value": 8}, {"measurement": "Degree of ripening 1, number of tomatoes, Treated", "setting": "Day 4", "value": 1}, {"measurement": "Degree of ripening 2, number of tomatoes, Treated", "setting": "Day 4", "value": 1}, {"measurement": "Degree of ripening 3, number of tomatoes, Treated", "setting": "Day 4", "value": 0}, {"measurement": "Degree of ripening 4, number of tomatoes, Treated", "setting": "Day 4", "value": 0}, {"measurement": "Degree of ripening 5, number of tomatoes, Treated", "setting": "Day 4", "value": 0}, {"measurement": "Degree of ripening 0, number of tomatoes, Treated", "setting": "Day 5", "value": 8}, {"measurement": "Degree of ripening 1, number of tomatoes, Treated", "setting": "Day 5", "value": 1}, {"measurement": "Degree of ripening 2, number of tomatoes, Treated", "setting": "Day 5", "value": 0}, {"measurement": "Degree of ripening 3, number of tomatoes, Treated", "setting": "Day 5", "value": 1}, {"measurement": "Degree of ripening 4, number of tomatoes, Treated", "setting": "Day 5", "value": 0}, {"measurement": "Degree of ripening 5, number of tomatoes, Treated", "setting": "Day 5", "value": 0}, {"measurement": "Degree of ripening 0, number of tomatoes, Treated", "setting": "Day 6", "value": 6}, {"measurement": "Degree of ripening 1, number of tomatoes, Treated", "setting": "Day 6", "value": 2}, {"measurement": "Degree of ripening 2, number of tomatoes, Treated", "setting": "Day 6", "value": 1}, {"measurement": "Degree of ripening 3, number of tomatoes, Treated", "setting": "Day 6", "value": 0}, {"measurement": "Degree of ripening 4, number of tomatoes, Treated", "setting": "Day 6", "value": 1}, {"measurement": "Degree of ripening 5, number of tomatoes, Treated", "setting": "Day 6", "value": 0}, {"measurement": "Degree of ripening 0, number of tomatoes, Treated", "setting": "Day 7", "value": 6}, {"measurement": "Degree of ripening 1, number of tomatoes, Treated", "setting": "Day 7", "value": 2}, {"measurement": "Degree of ripening 2, number of tomatoes, Treated", "setting": "Day 7", "value": 1}, {"measurement": "Degree of ripening 3, number of tomatoes, Treated", "setting": "Day 7", "value": 0}, {"measurement": "Degree of ripening 4, number of tomatoes, Treated", "setting": "Day 7", "value": 0}, {"measurement": "Degree of ripening 5, number of tomatoes, Treated", "setting": "Day 7", "value": 1}, {"measurement": "Degree of ripening 0, number of tomatoes, Treated", "setting": "Day 8", "value": 5}, {"measurement": "Degree of ripening 1, number of tomatoes, Treated", "setting": "Day 8", "value": 2}, {"measurement": "Degree of ripening 2, number of tomatoes, Treated", "setting": "Day 8", "value": 1}, {"measurement": "Degree of ripening 3, number of tomatoes, Treated", "setting": "Day 8", "value": 1}, {"measurement": "Degree of ripening 4, number of tomatoes, Treated", "setting": "Day 8", "value": 0}, {"measurement": "Degree of ripening 5, number of tomatoes, Treated", "setting": "Day 8", "value": 1}, {"measurement": "Degree of ripening 0, number of tomatoes, Treated", "setting": "Day 9", "value": 2}, {"measurement": "Degree of ripening 1, number of tomatoes, Treated", "setting": "Day 9", "value": 3}, {"measurement": "Degree of ripening 2, number of tomatoes, Treated", "setting": "Day 9", "value": 2}, {"measurement": "Degree of ripening 3, number of tomatoes, Treated", "setting": "Day 9", "value": 1}, {"measurement": "Degree of ripening 4, number of tomatoes, Treated", "setting": "Day 9", "value": 1}, {"measurement": "Degree of ripening 5, number of tomatoes, Treated", "setting": "Day 9", "value": 1}, {"measurement": "Degree of ripening 0, number of tomatoes, Treated", "setting": "Day 10", "value": 1}, {"measurement": "Degree of ripening 1, number of tomatoes, Treated", "setting": "Day 10", "value": 1}, {"measurement": "Degree of ripening 2, number of tomatoes, Treated", "setting": "Day 10", "value": 3}, {"measurement": "Degree of ripening 3, number of tomatoes, Treated", "setting": "Day 10", "value": 2}, {"measurement": "Degree of ripening 4, number of tomatoes, Treated", "setting": "Day 10", "value": 1}, {"measurement": "Degree of ripening 5, number of tomatoes, Treated", "setting": "Day 10", "value": 2}, {"measurement": "full ripening of tomatoes of the treatment group", "setting": "even after 10 days", "value": "most of them did not exhibit full ripening"}, {"measurement": "time after which tomatoes of the treatment group began the ripening process", "setting": "treatment group, control group began to ripen after 1 day", "value": "about 3 days"}]}
